Each structure is given as a SMILES string. Bounds are passed on as bounds.

Chain of Ba/F3 V617F cells (O60674 whole entry V617F): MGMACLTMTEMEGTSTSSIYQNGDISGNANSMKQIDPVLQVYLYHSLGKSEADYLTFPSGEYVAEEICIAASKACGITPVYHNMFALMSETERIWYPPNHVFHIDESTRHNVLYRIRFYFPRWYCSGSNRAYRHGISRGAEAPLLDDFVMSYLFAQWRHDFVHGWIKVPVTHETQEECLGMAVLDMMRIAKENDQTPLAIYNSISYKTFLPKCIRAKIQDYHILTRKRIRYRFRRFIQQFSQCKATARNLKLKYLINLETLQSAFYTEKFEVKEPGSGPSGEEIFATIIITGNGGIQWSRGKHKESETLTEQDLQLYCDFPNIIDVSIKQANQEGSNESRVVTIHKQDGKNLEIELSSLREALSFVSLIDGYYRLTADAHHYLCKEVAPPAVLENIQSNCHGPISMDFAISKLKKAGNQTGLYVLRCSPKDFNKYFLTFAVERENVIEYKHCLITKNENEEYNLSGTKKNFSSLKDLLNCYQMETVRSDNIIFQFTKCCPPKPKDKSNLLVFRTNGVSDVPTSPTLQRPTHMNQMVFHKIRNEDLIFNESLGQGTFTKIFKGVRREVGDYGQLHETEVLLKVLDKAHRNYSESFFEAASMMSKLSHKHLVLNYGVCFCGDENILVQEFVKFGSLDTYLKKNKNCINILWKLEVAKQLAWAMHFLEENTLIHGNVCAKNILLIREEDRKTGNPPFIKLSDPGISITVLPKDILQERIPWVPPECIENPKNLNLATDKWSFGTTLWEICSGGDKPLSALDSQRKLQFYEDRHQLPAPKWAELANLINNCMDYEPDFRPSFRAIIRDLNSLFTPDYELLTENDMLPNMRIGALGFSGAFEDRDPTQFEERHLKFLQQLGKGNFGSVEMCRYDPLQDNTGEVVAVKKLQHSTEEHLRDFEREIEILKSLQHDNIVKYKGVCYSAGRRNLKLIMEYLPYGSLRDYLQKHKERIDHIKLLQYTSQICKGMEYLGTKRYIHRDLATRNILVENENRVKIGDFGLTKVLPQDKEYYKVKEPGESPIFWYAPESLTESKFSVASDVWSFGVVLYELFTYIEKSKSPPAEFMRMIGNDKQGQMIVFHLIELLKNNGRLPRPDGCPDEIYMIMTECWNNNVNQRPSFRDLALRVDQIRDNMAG

The target in one test is Ba/F3 V617F cells (Homo sapiens, UniProt O60674, V617F, cells depend on it). Briefly: Proliferation assay (Cell Titer-Glo, 72 h) utilizing Ba/F3 V617F cells. It counts as cell-based, mouse. The note with it: Ba/F3 V617F cells, proliferation, level of activity given as class symbol, read-out: IC50 (the source's name). The procedure, abridged:
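Ba/F3 V617F cells in RPMI/10% FBS, 1×10^5 cells/mL, exposed in duplicate to 3-fold serial compound dilutions (top 5 mM DMSO stock, diluted 1:250, added as 2× solution in 5% FBS medium) for 72 h at 37 °C. Viability by Cell Titer-Glo luminescence; IC50 reported.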
For orientation: Cellular ATP, detected with luciferase, serves as a proxy for viable cell number.
For `CC1(C)Oc2cc(-c3ccnc(Nc4ccc(C5CC6CC5N(S(C)(=O)=O)C6)cc4)n3)cnc2NC1=O` (centres unmarked) [compound 228, 4-(2,2-dimethyl-3-oxo-3,4-dihydro-2H-pyrido[3,2-b][1,4]oxazin-7-yl)-N-(4-(2-methylsulfonyl-2-azabicyclo[2.2.1]heptan-6-yl)phenyl)pyrimidin-2-amine], the GI50 is under 1000 nM.
Same read-out and setting: for `CS(=O)(=O)N1CC2CC(c3ccc(Nc4nccc(-c5ccc(N6CCOCC6)nc5)n4)cc3)C1C2` (centres unmarked) [compound 229, 4-(6-(morpholin-4-yl)pyridin-3-yl)-N-(4-(2-methylsulfonyl-2-azabicyclo[2.2.1]heptan-6-yl)phenyl)pyrimidin-2-amine] the value was 1000 to 10000 nM; for `Cc1cc(Nc2nccc(-c3ccc(N4CCSCC4)nc3)n2)ccc1N1C[C@@H]2C[C@H]1CN2C` [compound 230, 4-(6-(thiamorpholin-4-yl)pyridin-3-yl)-N-(3-methyl-4-((1S,4S)-5-methyl-2,5-diazabicyclo[2.2.1]heptan-2-yl)phenyl)pyrimidin-2-amine], under 1000 nM.
Consider `Cc1cc(Nc2nccc(-c3ccc(N4CCOCC4)nc3)n2)ccc1N1C[C@@H]2C[C@H]1CN2C` [compound 231, 4-(6-(morpholin-4-yl)pyridin-3-yl)-N-(3-methyl-4-((1S,4S)-5-methyl-2,5-diazabicyclo[2.2.1]heptan-2-yl)phenyl)pyrimidin-2-amine], for which the GI50 is under 1000 nM.
On the same count and under the same terms, for `Cc1cc(Nc2nccc(-c3ccc4c(ccn4-c4ccncc4)c3)n2)ccc1N1C[C@@H]2C[C@H]1CN2C` [compound 232, 4-(1-(pyridin-4-yl)-1H-indol-5-yl)-N-(3-methyl-4-((1S,4S)-5-methyl-2,5-diazabicyclo[2.2.1]heptan-2-yl)phenyl)pyrimidin-2-amine] the value was under 1000 nM.
With `CN1C[C@@H]2C[C@H]1CN2c1ccc(Nc2nccc(-c3ccc4c(ccn4-c4ccncc4)c3)n2)cc1F` [compound 233, 4-(1-(pyridin-4-yl)-1H-indol-5-yl)-N-(3-fluoro-4-((1S,4S)-5-methyl-2,5-diazabicyclo[2.2.1]heptan-2-yl)phenyl)pyrimidin-2-amine], the GI50 is under 1000 nM.
As to `CCN1C[C@@H]2C[C@H]1CN2c1ccc(Nc2nccc(-c3ccc4c(ccn4-c4ccncc4)c3)n2)cc1C` [compound 234, 4-(1-(pyridin-4-yl)-1H-indol-5-yl)-N-(3-methyl-4-((1S,4S)-5-ethyl-2,5-diazabicyclo[2.2.1]heptan-2-yl)phenyl)pyrimidin-2-amine], the GI50 was under 1000 nM.
As to `Cc1cc(Nc2nccc(-c3ccc4c(ccn4-c4ccncc4)c3)n2)ccc1N1C[C@@H]2C[C@H]1CN2CC(C)C` [compound 235, 4-(1-(pyridin-4-yl)-1H-indol-5-yl)-N-(3-methyl-4-((1S,4S)-5-isobutyl-2,5-diazabicyclo[2.2.1]heptan-2-yl)phenyl)pyrimidin-2-amine], the GI50 is under 1000 nM.
Take `Cc1cc(Nc2nccc(-c3cnc4c(c3)CCC(=O)N4)n2)ccc1N1C[C@@H]2C[C@H]1CN2S(C)(=O)=O` [compound 237, 4-(7-oxo-5,6,7,8-tetrahydro-1,8-naphthyridin-3-yl)-N-(3-methyl-4-((1S,4S)-5-methylsulfonyl-2,5-diazabicyclo[2.2.1]heptan-2-yl)phenyl)pyrimidin-2-amine]: the GI50 is under 1000 nM.
`CCCNc1ccc(-c2ccnc(Nc3ccc(N4C[C@@H]5C[C@H]4CN5S(C)(=O)=O)c(C)c3)n2)cn1` [compound 238, 4-(6-(propylamino)pyridin-3-yl)-N-(3-methyl-4-((1S,4S)-5-methylsulfonyl-2,5-diazabicyclo[2.2.1]heptan-2-yl)phenyl)pyrimidin-2-amine]: the GI50 was under 1000 nM.

The same test, now with this note: inhibition of JAK2 activity, proliferation of Ba/F3 V617F cells, read-out: IC50 (the source's name).
As for `Cc1cc(Nc2nccc(-c3ccc4c(ccn4-c4ccncc4)c3)n2)cnc1N1C[C@@H]2C[C@H]1CN2C` [compound 236, 4-(1-(pyridin-4-yl)-1H-indol-5-yl)-N-(5-methyl-6-((1S,4S)-5-methyl-2,5-diazabicyclo[2.2.1]heptan-2-yl)pyridin-3-yl)pyrimidin-2-amine], the GI50 was under 1000 nM.

These data come from patent US9624229B2, “Pyrimidine-2-amine compounds and their use as inhibitors of JAK kinases” (Rigel Pharmaceuticals, Inc., priority 2008, dated 2017).
